This assay has as its target T1, haematopoietic prostaglandin D synthase (H-PGDS) (Homo sapiens, UniProt O60760).
T1 construct: Full length human H-PGDS cDNA (Invitrogen Ultimate ORF 10H13026) was amplified by PCR; 6-His (N); TEV protease cleavage site (N); made in house; host or cells: E. coli BL21 (DE3*), vector pET22b+
Briefly: H-PGDS RapidFire high throughput mass spectrometry assay (conversion of PGH2 to PGD2). Format: biochemical. Particulars: 10 nM H-PGDS, PGH2 formed in situ by COX-2 from arachidonic acid; read-out: Potency Range (mean pIC50) (converted). The essentials: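 RapidFire SPE–MS read-out calculated percent conversion from relative PGD2 and PGF2α (substrate surrogate) levels. Recombinant full-length human H-PGDS (His-tag, E. coli) turned over PGH2, produced in situ at ˜10 μM by human COX-2 (FLAG-tag, Sf9 cells) acting on arachidonic acid.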

These results are taken from patent US11053234B2 (GlaxoSmithKline Intellectual Property Development Limited, priority 2016, dated 2021).

Molecules are shown by their SMILES. Some results are limits rather than exact numbers.

T1 sequence (O60760 whole entry): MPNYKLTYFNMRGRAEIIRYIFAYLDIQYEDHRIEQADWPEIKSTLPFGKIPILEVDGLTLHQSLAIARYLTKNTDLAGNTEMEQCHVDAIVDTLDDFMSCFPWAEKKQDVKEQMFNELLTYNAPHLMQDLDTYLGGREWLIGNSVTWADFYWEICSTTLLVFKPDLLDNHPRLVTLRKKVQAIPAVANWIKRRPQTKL

For `Cc1cnc(NC(=O)[C@H]2C[C@H](Oc3cccc4cccnc34)C2)s1` [Example 217, (trans)-N-(5-Methylthiazol-2-yl)-3-(quinolin-8-yloxy)cyclobutanecarboxamide], the IC50 was 10 to 79.4 nM.

`N#Cc1ccnc(N2CC(NC(=O)N3CC(Oc4cc(F)cc5scnc45)C3)C2)c1` [Example 134]: the IC50 was 10 to 79.4 nM.

For the molecule `CC(C)(O)C1CC2(CC(NC(=O)[C@H]3C[C@H](Oc4cc(F)cc5scnc45)C3)C2)C1` (mixture of isomers) [Example 116, Racemic (trans)-3-((6-Fluorobenzo[d]thiazol-4-yl)oxy)-N-(6-(2-hydroxypropan-2-yl)spiro[3.3]heptan-2-yl)cyclobutanecarboxamide], the IC50 is 10 to 79.4 nM.

As to `O=C(N[C@H]1CC[C@@H](NC(CO)C(F)(F)F)CC1)N1CC(Oc2cc(F)cc3scnc23)C1` (mixture of isomers) [Example 124, Racemic 3-((6-Fluorobenzo[d]thiazol-4-yl)oxy)-N-((cis)-4-((1,1,1-trifluoro-3-hydroxypropan-2-yl)amino)cyclohexyl)azetidine-1-carboxamide], the IC50 was 10 to 79.4 nM.

Turning to `CS(=O)(=O)N1CCC(NC(=O)N2CC(Oc3cccc4scnc34)C2)CC1` [Example 97, 3-(Benzo[d]thiazol-4-yloxy)-N-(1-(methylsulfonyl)piperidin-4-yl)azetidine-1-carboxamide], the IC50 was 100 to 1000 nM.

For `O=C(Nc1cc(C2CC2)n[nH]1)[C@H]1C[C@H](Oc2cccc3scnc23)C1` [Example 302, (trans)-3-(Benzo[d]thiazol-4-yloxy)-N-(3-cyclopropyl-1H-pyrazol-5-yl)cyclobutanecarboxamide], the IC50 is 10 to 79.4 nM.

`O=C(Nc1ccnc(C2CC2)n1)N1CC(Oc2cc(F)cc3scnc23)C1` [Example 313, N-(2-Cyclopropylpyrimidin-4-yl)-3-((6-fluorobenzo[d]thiazol-4-yl)oxy)azetidine-1-carboxamide]: the IC50 was 10 to 79.4 nM.

Regarding `O=C1Nc2ccccc2C1NC(=O)[C@H]1C[C@H](Oc2cc(F)ccc2OC(F)F)C1` (mixture of isomers) [Example 24, Racemic (trans)-3-(2-(Difluoromethoxy)-5-fluorophenoxy)-N-(2-oxoindolin-3-yl)cyclobutanecarboxamide], the IC50 was 10 to 79.4 nM.

For the molecule `CS(=O)(=O)N1CCC(NC(=O)[C@H]2C[C@H](Oc3cccc4cccnc34)C2)CC1` [Example 219, (trans)-N-(1-(Methylsulfonyl)piperidin-4-yl)-3-(quinolin-8-yloxy)cyclobutanecarboxamide], the IC50 is 100 to 1000 nM.

As for `CCOCc1nc(NC(=O)[C@H]2C[C@H](Oc3cc(F)cc4scnc34)C2)n[nH]1` [Example 335], the IC50 is 10 to 79.4 nM.

For `N#Cc1ccc(N2CC(NC(=O)[C@H]3C[C@H](Oc4cccc5scnc45)C3)C2)nc1` [Example 37, (trans)-3-(Benzo[d]thiazol-4-yloxy)-N-(1-(5-cyanopyridin-2-yl)azetidin-3-yl)cyclobutanecarboxamide], the IC50 was 10 to 79.4 nM.

Take `O=C(Nc1nc(C2CC2)cs1)[C@H]1C[C@H](Oc2cccc3cccnc23)C1` [Example 207, (trans)-N-(4-Cyclopropylthiazol-2-yl)-3-(quinolin-8-yloxy)cyclobutanecarboxamide]: the IC50 is under 10 nM.

`CC(C)(O)c1cnc(N2CC(NC(=O)[C@H]3C[C@H](Oc4cccc5scnc45)C3)C2)o1` [Example 49, (trans)-3-(Benzo[d]thiazol-4-yloxy)-N-(1-(5-(2-hydroxypropan-2-yl)oxazol-2-yl)azetidin-3-yl)cyclobutanecarboxamide]: the IC50 was 10 to 79.4 nM.

On to `CC(N1CCC(NC(=O)N2CC(Oc3cccc4scnc34)C2)CC1)C(F)(F)F` (racemic) [Example 86, Racemic 3-(Benzo[d]thiazol-4-yloxy)-N-(1-(1,1,1-trifluoropropan-2-yl)piperidin-4-yl)azetidine-1-carboxamide], for which the IC50 is 10 to 79.4 nM.

For `C[C@]1(O)C[C@@H](NC(=O)[C@H]2C[C@H](Oc3cc(F)cc4scnc34)C2)C1` [Example 131, (trans)-3-((6-Fluorobenzo[d]thiazol-4-yl)oxy)-N-((cis)-3-hydroxy-3-methylcyclobutyl)cyclobutanecarboxamide], the IC50 was 100 to 1000 nM.

Consider `O=C(NC1CCCCC1)[C@H]1C[C@H](Oc2cccc3scnc23)C1` [Example 253], for which the IC50 was 100 to 1000 nM.

As for `CC(C)(O)[C@H]1CC[C@H](NC(=O)[C@H]2C[C@H](Oc3cccc(F)c3)C2)CC1` [Example 289, (trans)-3-(3-Fluorophenoxy)-N-((trans)-4-(2-hydroxypropan-2-yl)cyclohexyl)cyclobutanecarboxamide], the IC50 is 100 to 1000 nM.

Consider `CC(C)(O)c1csc(NC(=O)N2CC(Oc3cccc4scnc34)C2)n1` [Example 56, 3-(Benzo[d]thiazol-4-yloxy)-N-(4-(2-hydroxypropan-2-yl)thiazol-2-yl)azetidine-1-carboxamide], for which the IC50 is 100 to 1000 nM.

On to `Cc1cnc(N2CC(NC(=O)[C@H]3C[C@H](Oc4cc(F)cc5scnc45)C3)C2)nc1` [Example 112, (trans)-3-((6-Fluorobenzo[d]thiazol-4-yl)oxy)-N-(1-(5-methylpyrimidin-2-yl)azetidin-3-yl)cyclobutanecarboxamide], for which the IC50 is 10 to 79.4 nM.

With `O=C(Nc1ncco1)[C@H]1C[C@H](Oc2cccc3cccnc23)C1` [Example 208, (trans)-N-(Oxazol-2-yl)-3-(quinolin-8-yloxy)cyclobutanecarboxamide], the IC50 is 100 to 1000 nM.

As for `CC(C)(O)c1cnc(NC(=O)[C@H]2C[C@H](Oc3cccc4cccnc34)C2)s1` [Example 204, (trans)-N-(5-(2-Hydroxypropan-2-yl)thiazol-2-yl)-3-(quinolin-8-yloxy)cyclobutanecarboxamide], the IC50 was 10 to 79.4 nM.

Consider `O=C(c1csc(NC(=O)[C@H]2C[C@H](Oc3cccc4cccnc34)C2)n1)C1CC1` [Example 194, (trans)-N-(4-(Cyclopropanecarbonyl)thiazol-2-yl)-3-(quinolin-8-yloxy)cyclobutanecarboxamide], for which the IC50 is 10 to 79.4 nM.

Turning to `CCOC(=O)Cc1csc(NC(=O)[C@H]2C[C@H](Oc3cccc4ccoc34)C2)n1` [Example 262, Ethyl 2-(2-((trans)-3-(benzofuran-7-yloxy)cyclobutanecarboxamido)thiazol-4-yl)acetate], the IC50 is 10 to 79.4 nM.

Take `CNC(=O)c1ccc(N2CC(NC(=O)[C@H]3C[C@H](Oc4cccc5scnc45)C3)C2)nc1` [Example 38, 6-(3-((trans)-3-(Benzo[d]thiazol-4-yloxy)cyclobutanecarboxamido)azetidin-1-yl)-N-methylnicotinamide]: the IC50 is 10 to 79.4 nM.

As to `O=C(NC1CN(c2ncccn2)C1)[C@H]1C[C@H](Oc2cc(F)ccc2OC(F)F)C1` [Example 17, (trans)-3-(2-(Difluoromethoxy)-5-fluorophenoxy)-N-(1-(pyrimidin-2-yl)azetidin-3-yl)cyclobutanecarboxamide], the IC50 is 10 to 79.4 nM.

Turning to `Cc1ccc(N2CC(NC(=O)N3CC(Oc4cccc5scnc45)C3)C2)nc1` [Example 244], the IC50 was 10 to 79.4 nM.

For `O=C(N[C@H]1CC[C@H](N2CCOC2=O)CC1)N1CC(Oc2cccc3scnc23)C1` [Example 103, 3-(Benzo[d]thiazol-4-yloxy)-N-((trans)-4-(2-oxooxazolidin-3-yl)cyclohexyl)azetidine-1-carboxamide], the IC50 was 100 to 1000 nM.

As to `C[C@H]1[C@@H](Oc2cccc3scnc23)CN1C(=O)N[C@H]1CC[C@H](C(C)(C)O)CC1` [Example 304, (2S,3S)-3-(Benzo[d]thiazol-4-yloxy)-N-((trans)-4-(2-hydroxypropan-2-yl)cyclohexyl)-2-methylazetidine-1-carboxamide], the IC50 was 10 to 79.4 nM.

Turning to `O=C1CC(NC(=O)[C@H]2C[C@H](Oc3cc(F)ccc3OC(F)F)C2)c2ccccc2N1` (mixture of isomers) [Example 25, Racemic (trans)-3-(2-(Difluoromethoxy)-5-fluorophenoxy)-N-(2-oxo-1,2,3,4-tetrahydroquinolin-4-yl)cyclobutanecarboxamide], the IC50 is 10 to 79.4 nM.

Take `CC(C)(O)C12CC(NC(=O)[C@H]3C[C@H](Oc4cccc5scnc45)C3)(C1)C2` [Example 318, (trans)-3-(Benzo[d]thiazol-4-yloxy)-N-(3-(2-hydroxypropan-2-yl)bicyclo[1.1.1]pentan-1-yl)cyclobutane-1-carboxamide]: the IC50 is 10 to 79.4 nM.

As to `Cc1ccc(N2CC(NC(=O)N3CC(Oc4cc(F)cc5scnc45)C3)C2)nc1` [Example 232, 3-((6-Fluorobenzo[d]thiazol-4-yl)oxy)-N-(1-(5-methylpyridin-2-yl)azetidin-3-yl)azetidine-1-carboxamide], the IC50 is 10 to 79.4 nM.

On to `CCOCCNC(=O)c1ccc(N2CC(NC(=O)[C@H]3C[C@H](Oc4cc(F)cc5scnc45)C3)C2)nn1` [Example 234, N-(2-Ethoxyethyl)-6-(3-((trans)-3-((6-fluorobenzo[d]thiazol-4-yl)oxy)cyclobutanecarboxamido)azetidin-1-yl)pyridazine-3-carboxamide], for which the IC50 is 10 to 79.4 nM.

Take `CC(C)c1nsc(NC(=O)N2CC(Oc3cccc4scnc34)C2)n1` [Example 337, 3-(Benzo[d]thiazol-4-yloxy)-N-(3-isopropyl-1,2,4-thiadiazol-5-yl)azetidine-1-carboxamide]: the IC50 was under 10 nM.

`CC(C)c1nnc(NC(=O)N2CC(Oc3cccc4scnc34)C2)o1` [Example 328, 3-(Benzo[d]thiazol-4-yloxy)-N-(5-isopropyl-1,3,4-oxadiazol-2-yl)azetidine-1-carboxamide]: the IC50 is 100 to 1000 nM.

Consider `CC(C)(O)[C@H]1CC[C@H](NC(=O)[C@H]2C[C@H](Oc3ccc(F)c4cccnc34)C2)CC1` [Example 292, (trans)-3-((5-Fluoroquinolin-8-yl)oxy)-N-((trans)-4-(2-hydroxypropan-2-yl)cyclohexyl)cyclobutanecarboxamide], for which the IC50 is 100 to 1000 nM.
